Experiments:
Prothrombin [1] = target: T1, Prothrombin (Homo sapiens, UniProt P00734); experiment: Binding affinity to thrombin
Trypsin = Trypsin (Homo sapiens, UniProt P07477+P07478+P35030); experiment: Binding affinity to trypsin; format: protein assay
[2] = Cmax in dog administered with 5 mg/kg, po; format: ADME, organism-based, Canis lupus familiaris; design: dose 5 mg/kg, route oral; details: in vivo
Prothrombin [3] = target: T1, Prothrombin; details: Plasma
Description: Anticoagulant potency in human plasma

[4] = Cmax in dog administered with 4 mg/kg, po; format: ADME, organism-based, Canis lupus familiaris; design: dose 4 mg/kg, route oral; details: in vivo
[5] = Half life in dog administered with 4 mg/kg, po; format: ADME, organism-based, Canis lupus familiaris; design: dose 4 mg/kg, route oral; details: in vivo

Row | Ki (Prothrombin [1]) | Ki (Trypsin) | Structure (SMILES) | also measured
1 | 0.17 µM | 314 µM | Cc1ccc(NS(=O)(=O)Cc2ccccc2)c(=O)n1CC(=O)NCc1c[nH]cn1 | –
2 | 0.053 µM | – | Cc1nc[nH]c1CNC(=O)Cn1c(C)cnc(NCCc2ccccc2)c1=O | Cmax [4]: 1.4 µM; half-life [5]: 2 h
3 | 0.45 µM | 124 µM | Cc1ccc(NS(=O)(=O)Cc2ccccc2)c(=O)n1CC(=O)NCCCc1cnc(N)s1 | –
4 | 0.143 µM | 21 µM | Cc1ccc(NS(=O)(=O)Cc2ccccc2)c(=O)n1CC(=O)NC/C=C/c1c[nH]cn1 | –
5 | 1.8 µM | > 1000 µM | Cc1ccc(NS(=O)(=O)Cc2ccccc2)c(=O)n1CC(=O)NC/C=C/c1cnc(N)s1 | –
6 | 0.034 µM | 17 µM | Cc1ccc(NS(=O)(=O)Cc2ccccc2)c(=O)n1CC(=O)NCCCc1c[nH]cn1 | –
7 | – | > 1000 µM | Cc1ccc(NS(=O)(=O)Cc2ccccc2)c(=O)n1CC(=O)NCc1cnc(N)s1 | –

The remaining lines, values behind:

Row | Structure (SMILES) | Ki (Prothrombin [1]) | Ki (Trypsin) | also measured
8 | Nc1ncc(CCCNC(=O)[C@@H]2CCCN2C(=O)[C@H](N)C(c2ccccc2)c2ccccc2)s1 | 0.198 µM | 32 µM | –
9 | Nc1ncc(CNC(=O)[C@@H]2CCCN2C(=O)[C@H](N)C(c2ccccc2)c2ccccc2)s1 | 0.35 µM | 59 µM | –
10 | Nc1ncc(CCNC(=O)[C@@H]2CCCN2C(=O)[C@H](N)C(c2ccccc2)c2ccccc2)s1 | 0.193 µM | 59 µM | –
11 | Cc1[nH]cnc1/C=C/CNC(=O)[C@@H]1CCCN1C(=O)[C@H](N)C(c1ccccc1)c1ccccc1 | 0.001 µM | 0.1 µM | Cmax [2]: 0.55 µM; 2aPTT (Prothrombin [3]): 0.32 µM
12 | Nc1ncc(/C=C/CNC(=O)[C@@H]2CCCN2C(=O)[C@H](N)C(c2ccccc2)c2ccccc2)s1 | 0.03 µM | 178 µM | –
13 | N[C@@H](C(=O)N1CCC[C@H]1C(=O)NCc1c[nH]cn1)C(c1ccccc1)c1ccccc1 | 0.38 µM | 36 µM | –
14 | N[C@@H](C(=O)N1CCC[C@H]1C(=O)NC/C=C/c1c[nH]cn1)C(c1ccccc1)c1ccccc1 | 0.002 µM | 0.14 µM | –
15 | Cc1nc(N)sc1CNC(=O)Cn1c(C)ccc(NS(=O)(=O)Cc2ccccc2)c1=O | 0.01 µM | 6.5 µM | –
16 | Cc1[nH]cnc1C#CCNC(=O)[C@@H]1CCCN1C(=O)[C@H](N)C(c1ccccc1)c1ccccc1 | 0.006 µM | 7.2 µM | –
17 | N[C@@H](C(=O)N1CCC[C@H]1C(=O)NCC#Cc1c[nH]cn1)C(c1ccccc1)c1ccccc1 | 0.013 µM | 6 µM | –
18 | Cc1cnc(NCCc2ccccc2)c(=O)n1CC(=O)NC[C@H]1CC[C@H](N)CC1 | 0.0064 µM | – | –
19 | Cc1nc[nH]c1CNC(=O)Cn1c(C)ccc(NS(=O)(=O)Cc2ccccc2)c1=O | 0.008 µM | 43 µM | –
20 | N[C@@H](C(=O)N1CCC[C@H]1C(=O)NCCc1c[nH]cn1)C(c1ccccc1)c1ccccc1 | 0.2 µM | 2.3 µM | –
21 | N[C@@H](C(=O)N1CCC[C@H]1C(=O)NCCCc1c[nH]cn1)C(c1ccccc1)c1ccccc1 | 0.017 µM | 0.24 µM | –
22 | Cc1[nH]cnc1CNC(=O)[C@@H]1CCCN1C(=O)[C@H](N)C(c1ccccc1)c1ccccc1 | 0.065 µM | 9.6 µM | –
23 | Cc1nc[nH]c1CNC(=O)Cn1c(C)cnc(NCCc2ccccn2)c1=O | 0.022 µM | – | –

From ChEMBL document CHEMBL1147766, “Structure-based design of novel groups for use in the P1 position of thrombin inhibitor scaffolds. Part 1: Weakly basic azoles” (Bioorg Med Chem Lett, 2006)
